Source: ChEMBL document CHEMBL5620352, “Discovery of highly potent and selective VEGFR2 kinase inhibitors for the treatment of rheumatoid arthritis” (Eur J Med Chem, 2023)

Columns and labels:
Format in all cases: ADME, organism-based
[1] = Apparent clearance in Sprague-Dawley rat at 1 mg/kg, iv measured upto 24 hrs by LC-MS/MS analysis; settings: in vivo, read-out: CL(app) (converted)
[2] = Cmax in Sprague-Dawley rat at 10 mg/kg, po measured upto 24 hrs by LC-MS/MS analysis; settings: in vivo
[3] = Half life in Sprague-Dawley rat at 10 mg/kg, po measured upto 24 hrs by LC-MS/MS analysis; settings: in vivo
[4] = Cmax in Sprague-Dawley rat at 1 mg/kg, iv measured upto 24 hrs by LC-MS/MS analysis; settings: in vivo
[5] = Apparent volume of distribution in Sprague-Dawley rat at 1 mg/kg, iv measured upto 24 hrs by LC-MS/MS analysis; settings: in vivo, read-out: Vz
[6] = AUC(0 to infinity) in Sprague-Dawley rat at 1 mg/kg, iv measured upto 24 hrs by LC-MS/MS analysis; settings: in vivo
[7] = AUC(0 to infinity) in Sprague-Dawley rat at 10 mg/kg, po measured upto 24 hrs by LC-MS/MS analysis; settings: in vivo
[8] = Oral bioavailability in Sprague-Dawley rat at 10 mg/kg measured upto 24 hrs by LC-MS/MS analysis; settings: in vivo
[9] = Apparent clearance in Sprague-Dawley rat at 10 mg/kg, po measured upto 24 hrs by LC-MS/MS analysis; settings: in vivo, read-out: CL(app) (converted)
[10] = Half life in Sprague-Dawley rat at 1 mg/kg, iv measured upto 24 hrs by LC-MS/MS analysis; settings: in vivo
[11] = Apparent volume of distribution in Sprague-Dawley rat at 10 mg/kg, po measured upto 24 hrs by LC-MS/MS analysis; settings: in vivo

clearance [1]: 96 mL/min/kg | Cmax [2]: 113 ng/mL | half-life [3]: 47.4 min | Cmax [4]: 689 ng/mL | Vd [5]: 2.16 L/kg | AUC(0-inf) [6]: 175 ng·h/mL | AUC(0-inf) [7]: 274 ng·h/mL | bioavailability [8]: 15% | CL/F [9]: 657 mL/min/kg | half-life [10]: 16.8 min | Vz [11]: 39.752 L/kg
Compound: COc1cccc(C(=O)Nc2cccc(Sc3ccc4c(NC(C)=O)n[nH]c4c3)c2)c1
